Consider 27 compounds from US11104648B2, “Pyrazole derivative” (Zhejiang Research Institute of Chemical Industry Co., Ltd., priority 2018, dated 2021).

Like-named read-outs stand apart in the source and are kept apart here.

Holding throughout (assay type): in vivo
Assay [1] relates to Eggs of Tetranychus Cinnabarinus. The experiment in a line: Activity assay of eggs of Tetranychus cinnabarinus (spray method, ovicidal). As to conditions: Tetranychus cinnabarinus; for pest or weed control at 5 µg/mL: concentration 5 mg/L, non-incubated eggs counted as dead; for pest or weed control at 2 µg/mL: concentration 2 mg/L. In a few lines:
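Ovicidal spray test: compound dissolved in DMF, diluted with 1‰ Tween 80 (DMF ≤10%), sprayed on eggs laid during 24 h by females on broad bean leaves. Culture at 26±2° C, 70–80% RH, 16 h photoperiod; non-hatched eggs scored as dead when blank control hatched; three repeats.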

Assay [2] has as its system adult Tetranychus cinnabarinus. The experiment in a line: Activity assay of adult Tetranychus cinnabarinus (whole-plant spray on bean seedlings). As to conditions: 48 h; for pest or weed control at 2.5 µg/mL: concentration 2.5 mg/L; for pest or weed control at 1.25 µg/mL: concentration 1.25 mg/L. In a few lines:
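Whole plants sprayed after adult mite inoculation and initial census, using compound dissolved in DMF and made up with 1‰ Tween 80 water (DMF not above 10%). Mortality derived from survivor counts at 48 h after treatment. Each treatment run in triplicate.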

In assay [3] the test system is Tetranychus cinnabarinus Nymphs. Briefly: Activity assay of Tetranychus cinnabarinus nymphs (spray on broad bean leaves). Conditions: 48 h; for pest or weed control at 2.5 µg/mL: concentration 2.5 mg/L; for pest or weed control at 2.5 µg/mL / pest or weed control at 2 µg/mL: read-out: nymph-killing activity; for pest or weed control at 2 µg/mL: concentration 2 mg/L. In a few lines: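 Mortality, judged as no response to gentle touch, was scored 48 h after spraying Tetranychus cinnabarinus nymphs on broad bean leaves (eggs from females removed after 24 h). Test solutions: DMF-dissolved compound, ≤10% DMF, in 1‰ Tween 80; 26±2° C., 70%–80% RH, 16 h light; triplicate, blank control.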

Where [4] appears, read: spray, read-out: ovicidal activity.
[5] abbreviates: read-out: adult mite-killing activity.

Take `Cc1cc(/C(OCOC(=O)OCCC(C)C)=C(\C#N)c2ccc(C(C)(C)C)cc2)n(C)n1` [Compound 458]: the pest or weed control at 5 µg/mL in assay [1] (setting [4]) is no less than 90%. Also, the pest or weed control at 2.5 µg/mL in assay [2] (setting [5]) was no less than 90%; in assay [3], no less than 95%.

As for `CCCCCOC(=O)OCO/C(=C(/C#N)c1ccc(C(C)(C)C)cc1)c1cc(C)nn1C` [Compound 460], in assay [1] (setting [4]), the pest or weed control at 5 µg/mL was no less than 90%. The pest or weed control at 2.5 µg/mL in assay [2] (setting [5]) is no less than 90%; in assay [3] it was no less than 95%.

`Cc1cc(/C(OCOC(=O)OCC(F)(F)F)=C(\C#N)c2ccc(C(C)(C)C)cc2)n(C)n1` [Compound 467]: the pest or weed control at 5 µg/mL in assay [1] (setting [4]) is no less than 90%. Besides, the values for the pest or weed control at 2.5 µg/mL in assay [2] (setting [5]) and in assay [3] were no less than 90% and no less than 95%, respectively.

On to `COCCOC(=O)OCO/C(=C(/C#N)c1ccc(C(C)(C)C)cc1)c1cc(C)nn1C` [Compound 468], for which the pest or weed control at 5 µg/mL in assay [1] (setting [4]) is no less than 90%. Further, the figures for the pest or weed control at 2.5 µg/mL in assay [2] (setting [5]) and in assay [3] were no less than 90% and no less than 95%, respectively.

With `CSCCOC(=O)OCO/C(=C(/C#N)c1ccc(C(C)(C)C)cc1)c1cc(C)nn1C` [Compound 471], the pest or weed control at 5 µg/mL in assay [1] (setting [4]) is no less than 90%. The pest or weed control at 2.5 µg/mL is no less than 90% in assay [2] (setting [5]) and no less than 95% in assay [3].

For `C=CCOC(=O)OCO/C(=C(/C#N)c1ccc(C(C)(C)C)cc1)c1cc(C)nn1C` [Compound 474], the pest or weed control at 5 µg/mL in assay [1] (setting [4]) was no less than 90%. The pest or weed control at 2.5 µg/mL in assay [2] (setting [5]) was no less than 90%; in assay [3], no less than 95%.

Consider `C#CCOC(=O)OCO/C(=C(/C#N)c1ccc(C(C)(C)C)cc1)c1cc(C)nn1C` [Compound 476], for which the pest or weed control at 5 µg/mL in assay [1] (setting [4]) was no less than 90%. Also, the pest or weed control at 2.5 µg/mL was no less than 90% in assay [2] (setting [5]) and no less than 95% in assay [3].

Regarding `COC(=O)COC(=O)OCO/C(=C(/C#N)c1ccc(C(C)(C)C)cc1)c1cc(C)nn1C` [Compound 477], the pest or weed control at 5 µg/mL in assay [1] (setting [4]) is no less than 90%. The results for the pest or weed control at 2.5 µg/mL in assay [2] (setting [5]) and in assay [3] were no less than 90% and no less than 95%, respectively.

On to `CCSC(=O)OCO/C(=C(/C#N)c1ccc(C(C)(C)C)cc1)c1cc(C)nn1C` [Compound 480], for which the pest or weed control at 5 µg/mL in assay [1] (setting [4]) was no less than 90%. Further, the pest or weed control at 2.5 µg/mL in assay [2] (setting [5]) is no less than 90%; in assay [3], no less than 95%.

On to `COC(=O)CSC(=O)OCO/C(=C(/C#N)c1ccc(C(C)(C)C)cc1)c1cc(C)nn1C` [Compound 481], for which, in assay [1] (setting [4]), the pest or weed control at 5 µg/mL is no less than 90%. Further, the pest or weed control at 2.5 µg/mL in assay [2] (setting [5]) is no less than 90%; in assay [3], no less than 95%.

Turning to `COC(=O)OC(C)O/C(=C(/C#N)c1ccc(C(C)(C)C)cc1)c1cc(C)nn1C` (stereo not drawn) [Compound 483], the pest or weed control at 5 µg/mL in assay [1] (setting [4]) was no less than 90%. The pest or weed control at 2.5 µg/mL is no less than 90% in assay [2] (setting [5]) and no less than 95% in assay [3].

Regarding `Cc1cc(/C(OC(C)OC(=O)OC(C)C)=C(\C#N)c2ccc(C(C)(C)C)cc2)n(C)n1` (stereo not drawn) [Compound 486], the pest or weed control at 5 µg/mL in assay [1] (setting [4]) is no less than 90%. Also, the pest or weed control at 2.5 µg/mL in assay [2] (setting [5]) was no less than 90%; in assay [3], no less than 95%.

`CCCCOC(=O)OC(C)O/C(=C(/C#N)c1ccc(C(C)(C)C)cc1)c1cc(C)nn1C` (stereo not drawn) [Compound 488]: in assay [1] (setting [4]), the pest or weed control at 5 µg/mL is no less than 90%. The pest or weed control at 2.5 µg/mL is no less than 90% in assay [2] (setting [5]) and no less than 95% in assay [3].

Take `Cc1cc(/C(OC(C)OC(=O)OCC(C)C)=C(\C#N)c2ccc(C(C)(C)C)cc2)n(C)n1` (stereo not drawn) [Compound 489]: the pest or weed control at 5 µg/mL in assay [1] (setting [4]) was no less than 90%. Besides, the pest or weed control at 2.5 µg/mL is no less than 90% in assay [2] (setting [5]) and no less than 95% in assay [3].

Take `Cc1cc(/C(OC(C)OC(=O)OCCC(C)C)=C(\C#N)c2ccc(C(C)(C)C)cc2)n(C)n1` (stereo not drawn) [Compound 490]: in assay [1] (setting [4]), the pest or weed control at 5 µg/mL is no less than 90%. Moreover, the pest or weed control at 2.5 µg/mL in assay [2] (setting [5]) is no less than 90%; in assay [3], no less than 95%.

In the case of `CCCCCOC(=O)OC(C)O/C(=C(/C#N)c1ccc(C(C)(C)C)cc1)c1cc(C)nn1C` (stereo not drawn) [Compound 492], the pest or weed control at 5 µg/mL in assay [1] (setting [4]) is no less than 90%. In addition, the pest or weed control at 2.5 µg/mL was no less than 90% in assay [2] (setting [5]) and no less than 95% in assay [3].

Regarding `Cc1cc(/C(OC(C)OC(=O)OCCCl)=C(\C#N)c2ccc(C(C)(C)C)cc2)n(C)n1` (stereo not drawn) [Compound 494], in assay [1] (setting [4]), the pest or weed control at 5 µg/mL was no less than 90%. Moreover, the pest or weed control at 2.5 µg/mL in assay [2] (setting [5]) is no less than 90%; in assay [3], no less than 95%.

Take `Cc1cc(/C(OC(C)OC(=O)OCC(F)(F)F)=C(\C#N)c2ccc(C(C)(C)C)cc2)n(C)n1` (stereo not drawn) [Compound 499]: the pest or weed control at 5 µg/mL in assay [1] (setting [4]) was no less than 90%. Moreover, the pest or weed control at 2.5 µg/mL in assay [2] (setting [5]) is no less than 90%; in assay [3], no less than 95%.

With `COCCOC(=O)OC(C)O/C(=C(/C#N)c1ccc(C(C)(C)C)cc1)c1cc(C)nn1C` (stereo not drawn) [Compound 500], the pest or weed control at 5 µg/mL in assay [1] (setting [4]) was no less than 90%. Moreover, the pest or weed control at 2.5 µg/mL is no less than 90% in assay [2] (setting [5]) and no less than 95% in assay [3].

In the case of `CSCCOC(=O)OC(C)O/C(=C(/C#N)c1ccc(C(C)(C)C)cc1)c1cc(C)nn1C` (stereo not drawn) [Compound 503], the pest or weed control at 5 µg/mL in assay [1] (setting [4]) was no less than 90%. Besides, the pest or weed control at 2.5 µg/mL in assay [2] (setting [5]) was no less than 90%; in assay [3] it was no less than 95%.

For the compound `C=CCOC(=O)OC(C)O/C(=C(/C#N)c1ccc(C(C)(C)C)cc1)c1cc(C)nn1C` (stereo not drawn) [Compound 506], the pest or weed control at 5 µg/mL in assay [1] (setting [4]) was no less than 90%. Besides, the pest or weed control at 2.5 µg/mL is no less than 90% in assay [2] (setting [5]) and no less than 95% in assay [3].

As to `C#CCOC(=O)OC(C)O/C(=C(/C#N)c1ccc(C(C)(C)C)cc1)c1cc(C)nn1C` (stereo not drawn) [Compound 508], in assay [1] (setting [4]), the pest or weed control at 5 µg/mL is no less than 90%. Besides, the values for the pest or weed control at 2.5 µg/mL in assay [2] (setting [5]) and in assay [3] were no less than 90% and no less than 95%, respectively.

On to `COC(=O)COC(=O)OC(C)O/C(=C(/C#N)c1ccc(C(C)(C)C)cc1)c1cc(C)nn1C` (stereo not drawn) [Compound 509], for which the pest or weed control at 5 µg/mL in assay [1] (setting [4]) was no less than 90%. The pest or weed control at 2.5 µg/mL in assay [2] (setting [5]) is no less than 90%; in assay [3] it was no less than 95%.

For `CCSC(=O)OC(C)O/C(=C(/C#N)c1ccc(C(C)(C)C)cc1)c1cc(C)nn1C` (stereo not drawn) [Compound 512], the pest or weed control at 5 µg/mL in assay [1] (setting [4]) was no less than 90%. Further, the pest or weed control at 2.5 µg/mL in assay [2] (setting [5]) was no less than 90%; in assay [3], no less than 95%.

For `COC(=O)CSC(=O)OC(C)O/C(=C(/C#N)c1ccc(C(C)(C)C)cc1)c1cc(C)nn1C` (stereo not drawn) [Compound 513], the pest or weed control at 5 µg/mL in assay [1] (setting [4]) is no less than 90%. In addition, the pest or weed control at 2.5 µg/mL in assay [2] (setting [5]) was no less than 90%; in assay [3], no less than 95%.

For `CCn1nc(C)cc1/C(OCOC(=O)OC)=C(\C#N)c1ccc(C(C)(C)C)cc1` [Compound 547], the pest or weed control at 2 µg/mL in assay [1] (setting [4]) was no less than 90%; in assay [1] (eggs, parallel determination, read-out: Death rate (%)), 100%; in assay [3] it was no less than 90%. Also, the pest or weed control at 1.25 µg/mL in assay [2] (adult mites, parallel determination, read-out: Death rate (%)) was 100%; in assay [2] (setting [5]) it was no less than 90%. For the same compound, in assay [3] (nymphs, concentration 0.5 mg/L, parallel determination, read-out: Death rate (%)), the pest or weed control at 0.5 µg/mL turned out to be 93%.

For `CCn1nc(C)cc1/C(OCOC(=O)OC(C)C)=C(\C#N)c1ccc(C(C)(C)C)cc1` [Compound 550], in assay [1] (setting [4]), the pest or weed control at 2 µg/mL was no less than 90% and the pest or weed control at 5 µg/mL is no less than 90%. For the same compound, in assay [2] (setting [5]), the pest or weed control at 1.25 µg/mL is no less than 90% and the pest or weed control at 2.5 µg/mL was no less than 90%. In assay [3], the pest or weed control at 2 µg/mL was no less than 90% and the pest or weed control at 2.5 µg/mL was no less than 95%.
